# Experimental data taken from ChEMBL document CHEMBL4651402, “Screening of ~5500 FDA-approved drugs and clinical candidates for anti-SARS-CoV-2 activity” (2021).
# System: SARS-CoV-2
# Experiment: microbe, parasite or virus in culture
# Conditions: Severe acute respiratory syndrome coronavirus 2, Vero C1008, 48 h
SMILES,IC50,IC50 (read-out: pIC50 (converted))
CO[C@@]12CC[C@@]3(C[C@@H]1[C@](C)(O)C(C)(C)C)[C@H]1Cc4ccc(O)c5c4[C@@]3(CCN1CC1CC1)[C@H]2O5 [BUPRENORPHINE],> 20 µM,> 20 µM
CC(NC(C)(C)C)C(=O)c1cccc(Cl)c1 (stereo not drawn) [BUPROPION],> 20 µM,> 20 µM
CCCCNC(=O)NC1CCN(c2ncnc3cc(OC)c(OC)cc23)CC1 [BUQUINERAN],> 20 µM,> 20 µM
O=C(NCc1ccccc1)OCCO [BURAMATE],> 20 µM,> 20 µM
O=C1CC2(CCCC2)CC(=O)N1CCCCN1CCN(c2ncccn2)CC1 [BUSPIRONE],> 20 µM,> 20 µM
CS(=O)(=O)OCCCCOS(C)(=O)=O [BUSULFAN],> 20 µM,> 20 µM
CCCCN(CCCC)CCCOC(=O)c1ccc(N)cc1 [BUTACAINE],> 20 µM,> 20 µM
CC(=O)Nc1ccc(OC(C)(C)C)cc1 [BUTACETIN],> 20 µM,> 20 µM
CCCCN(CCCC)CCNc1nc(-c2ccccc2)no1 [BUTALAMINE],> 20 µM,> 20 µM
C=CCC1(CC(C)C)C(=O)NC(=O)NC1=O [BUTALBITAL],> 20 µM,> 20 µM
CCCCOC(=O)c1ccc(N)cc1 [BUTAMBEN],> 20 µM,> 20 µM
CCC(C(=O)OCCOCCN(CC)CC)c1ccccc1 (stereo not drawn) [BUTAMIRATE],> 20 µM,> 20 µM
O=C(c1ccc(F)cc1)C1CCN(CCCCn2c(=O)[nH]c3ccccc3c2=O)CC1 [BUTANSERIN],> 20 µM,> 20 µM
CCCC(=O)c1ccc2c(c1)N(CCCN1CCN(C)CC1)c1ccccc1S2 [BUTAPERAZINE],> 20 µM,> 20 µM
O=C(/C=C/c1ccc(O)c(O)c1)c1ccc(O)cc1O [BUTEIN],> 20 µM,> 20 µM
CN(Cc1ccc(C(C)(C)C)cc1)Cc1cccc2ccccc12 [BUTENAFINE],> 20 µM,> 20 µM
CCC(C(=O)OCCN(CC)CC)c1ccccc1 (stereo not drawn) [BUTETAMATE],> 20 µM,> 20 µM
CCCCS(=N)(=O)CCC(N)C(=O)O (stereo not drawn) [BUTHIONINE SULFOXIMINE],> 20 µM,> 20 µM
Clc1ccc(CCC(Cn2ccnc2)Sc2c(Cl)cccc2Cl)cc1 (stereo not drawn) [BUTOCONAZOLE],> 20 µM,> 20 µM
CCCC(=O)c1cc(F)ccc1OCC(O)CNC(C)(C)C (stereo not drawn) [BUTOFILOLOL],> 20 µM,> 20 µM

SMILES,IC50,IC50 (read-out: pIC50 (converted))
Oc1ccc2c(c1)[C@@]13CCCC[C@@]1(O)[C@@H](C2)N(CC1CCC1)CC3 [BUTORPHANOL],> 20 µM,> 20 µM
COc1ccc(OC)c(C(O)C(C)NC(C)(C)C)c1 (stereo not drawn) [BUTOXAMINE],> 20 µM,> 20 µM
CC(CC1c2ccccc2CCc2ccccc21)CN(C)C (stereo not drawn) [BUTRIPTYLINE],> 20 µM,> 20 µM
CCCCOC(=O)c1ccc(O)cc1 [BUTYLPARABEN],> 20 µM,> 20 µM
CCCC[N+]1(C)[C@@H]2C[C@@H](OC(=O)[C@H](CO)c3ccccc3)C[C@H]1[C@@H]1O[C@@H]12 (stereo partly drawn) [BUTYLSCOPOLAMINE],> 20 µM,> 20 µM
CCCC(=O)O [BUTYRIC ACID],> 20 µM,> 20 µM
O=C1CCCO1 [BUTYROLACTONE],> 20 µM,> 20 µM
C[N+]1(CCC(C(N)=O)(c2ccccc2)c2ccccc2)CCCCCC1 [BUZEPIDE],> 20 µM,> 20 µM
C[C@@H]1CN(Cc2ccc(F)cc2)CCN1C(=O)COc1ccc(Cl)cc1NC(N)=O [BX 471 FREE BASE],> 20 µM,> 20 µM
COc1cc2nccc(Oc3ccc(NC(=O)C4(C(=O)Nc5ccc(F)cc5)CC4)cc3)c2cc1OC [CABOZANTINIB],> 20 µM,> 20 µM
O=C(O)c1cn(C2CC2)c2cc(N3CCC(O)(COc4ccc(N5C[C@H](CO)OC5=O)cc4F)CC3)c(F)cc2c1=O [CADAZOLID],> 20 µM,> 20 µM
CC(=O)OC[C@@]1(O)C[C@@]23CC[C@@H]4c5ccoc5CC[C@@]4(C)[C@@H]2CC[C@@H]1C3 [CAFESTOL ACETATE],> 20 µM,> 20 µM
C=C1/C(=C\C=C2/CCC[C@]3(C)[C@@H]([C@H](C)/C=C/[C@@H](O)C4CC4)CC[C@@H]23)C[C@@H](O)C[C@@H]1O [CALCIPOTRIENE],> 20 µM,> 20 µM
O=S(=O)(O)c1cc(O)ccc1O [CALCIUM DOBESILATE],> 20 µM,> 20 µM
CC[C@@]1(O)C(=O)OCc2c1cc1n(c2=O)Cc2cc3ccccc3nc2-1 [CAMPTOTHECIN],> 20 µM,> 20 µM
CCN(CC)CCNC(C(=O)OCCC(C)C)c1ccccc1 (stereo not drawn) [CAMYLOFIN],> 20 µM,> 20 µM
Cc1ccc([C@@H]2O[C@H](CO)[C@@H](O)[C@H](O)[C@H]2O)cc1Cc1ccc(-c2ccc(F)cc2)s1 [CANAGLIFLOZIN ANHYDROUS],> 20 µM,> 20 µM
NC(N)=NOCC[C@H](N)C(=O)O [CANAVANINE],> 20 µM,> 20 µM
C=CC(=O)Nc1cc2c(Nc3ccc(F)c(Cl)c3)ncnc2cc1OCCCN1CCOCC1 [CANERTINIB],> 20 µM,> 20 µM
